Assay results published in the NIST ThermoML archive (doi:10.1021/je049546h).

Legend:
[1] = Liquid
[2] = xn = mol fraction of the nth substance listed; settings: for mass density: Other PVT measurement; for Critical density: closed cell phase equilibration

O=C=O [carbon dioxide]
[1]
Settings | Critical pressure [kPa] | Critical temperature [K]
Direct measurement | 7360 | –
Visual observation in a stirred cell | – | 304.2

CCc1ccccc1 [ethylbenzene] + O=C=O
mass density [kg/m3], [2], Liquid
Settings | 303.2 K | 308.2 K | 313.2 K | 318.2 K | 323.2 K | 328.2 K | 333.2 K
x1 = 0.0211 | 709 | 665 | 590 | – | – | – | –
x1 = 0.0384 | 741 | 715 | 673 | 633 | 583 | – | –
x1 = 0.0512 | 762 | 735 | 702 | 671 | 630 | 603 | –
x1 = 0.0637 | 782 | 761 | 731 | 703 | 675 | 642 | 607
x1 = 0.0751 | 790 | 769 | 748 | 722 | 697 | 672 | 646
x1 = 0.0998 | 818 | 799 | 779 | 760 | 742 | 723 | 706

[2], Liquid
Settings | Critical density [kg/m3]
x1 = 0.0225 | 520
x1 = 0.0363 | 545
x1 = 0.0488 | 580

C=Cc1ccccc1 [styrene] + O=C=O
mass density [kg/m3], [2]
Settings | x1 = 0.0225 | x1 = 0.0363 | x1 = 0.0488 | x1 = 0.0742 | x1 = 0.101
303.2 K, Liquid | 721 | 755 | 774 | 805 | 831
308.2 K, Liquid | 675 | 721 | 747 | 781 | 813
313.2 K, Liquid | 615 | 683 | 711 | 758 | 794
318.2 K, Liquid | 529 | 635 | 682 | 734 | 774
321.2 K, Gas | 500 | – | – | – | –
323.2 K, Liquid | – | 582 | 645 | 711 | 755
328.2 K, Liquid | – | – | 608 | 685 | 733
330.2 K, Gas | – | 527 | – | – | –
333.2 K, Gas | – | – | 570 | – | –
333.2 K, Liquid | – | – | – | 663 | 713

[2], Liquid
Settings | Critical density [kg/m3]
x1 = 0.0211 | 504
x1 = 0.0384 | 546
x1 = 0.0512 | 560
x1 = 0.0637 | 590
